From US20240115654A1, “INTRAVENOUS ADMINISTRATION OF ENGINEERED ANTIMICROBIAL AMPHIPHILIC PEPTIDES” (priority 2021, published 2024)
Like-named read-outs stand apart in the source and are kept apart here. Peptide text beside a SMILES is read from it.

Description: All subjects who met eligibility criteria were confined to the clinical research unit from […] through Day 3. At admission, physical examination, vital signs, 12 lead ECG and weight were obtained, medical and medication history were updated if necessary, safety blood tests (hematology and chemistry), urinalysis, urine drug screen and an alcohol breath test were repeated and a urine pregnancy test was done for women of childbearing potential.
At each dose level, there were 2 sentinel subjects, (1 active, 1 placebo), who were dosed at least 48 hours in advance of the other subjects in their respective group. Following review of safety data, including physical examination, vital signs, and review of adverse events from the first 2 subjects, enrolment in the cohort continued.
A 12-lead ECG was performed on Day 1, within 60 minutes of infusion start (in triplicate), mid-way through the infusion, at the completion of the infusion, 30 minutes after completion of the infusion and at various timepoints following the end of the infusion.
Vital signs were recorded within 60 minutes pre-dose, at the mid-point of the infusion and post dose vitals were assessed at completion of the infusion, 0.5, 1, 2, 3, 4, 6, 9, 12, 24 and 48 hours post dose, after at least 3 minutes of rest in supine position.
Subjects returned to the study center 7 days after dosing, for the termination visit. A full physical examination, vital signs and weight were obtained, concomitant medications were updated if necessary, safety blood specimens (haematology and chemistry, PT and aPTT) and urine were collected for urinalysis and urine drug screening. A serum pregnancy test was done for women of childbearing potential and a 12-lead ECG was performed.
In this study dose limiting toxicity (DLT) was defined as any drug related ≥Grade 3 AEs occurring despite optimal therapeutic interventions (which included but were not limited to allergic/hypersensitivity reactions, dermatological reactions/infusion site reactions, haematological toxicities such as neutropenia, thrombocytopenia and anaemia and clinical chemistry abnormalities) experienced up to Day 7 (Termination Visit).
(§1) All subjects who received any amount of study drug were included in the safety analysis (Safety population).
The study was a double blinded, randomized, placebo-controlled study. The placebo administered was 0.9% sodium chloride.
On Day 1 (day of dosing), subjects were randomly assigned either peptide IV or Placebo IV. At each dose level, there were 2 sentinel subjects, (1 active, 1 placebo), who were dosed at least 48 hours in advance of the other subjects in their respective group. Following review of safety data, including physical examination, vital signs, and review of adverse events from the first 2 subjects, enrolment in the cohort continued. All subjects who met eligibility criteria were confined to the clinical research unit from Day −2 through Day 3. At admission, physical examination, vital signs, 12 lead ECG and weight were obtained, medical and medication history were updated if necessary, safety blood tests (hematology and chemistry), urinalysis, urine drug screen and an alcohol breath test were repeated and a urine pregnancy test was done for women of childbearing potential.
as §1

[1] = 0.05 mg/kg IV 1 hr infusion (N = 6)
[2] = 0.5 mg/kg IV 2 hr infusion (N = 6)
[3] = Cohort 1: 0.05 mg/kg IV 1-hr infusion (N = 6)

SMILES: CC(C)[C@H](NC(=O)[C@H](Cc1c[nH]c2ccccc12)NC(=O)[C@H](CCCNC(=N)N)NC(=O)[C@H](CCCNC(=N)N)NC(=O)[C@@H](NC(=O)[C@@H](NC(=O)[C@H](CCCNC(=N)N)NC(=O)[C@@H](NC(=O)[C@@H](NC(=O)[C@H](CCCNC(=N)N)NC(=O)[C@H](CCCNC(=N)N)NC(=O)[C@H](Cc1c[nH]c2ccccc12)NC(=O)[C@@H](NC(=O)[C@H](CCCNC(=N)N)NC(=O)[C@H](CCCNC(=N)N)NC(=O)[C@@H](NC(=O)[C@H](CCCNC(=N)N)NC(=O)[C@H](CCCNC(=N)N)NC(=O)[C@@H](NC(=O)[C@H](Cc1c[nH]c2ccccc12)NC(=O)[C@H](CCCNC(=N)N)NC(=O)[C@@H](N)CCCNC(=N)N)C(C)C)C(C)C)C(C)C)C(C)C)C(C)C)C(C)C)C(C)C)C(=O)N[C@@H](CCCNC(=N)N)C(=O)N[C@@H](CCCNC(=N)N)C(N)=O [SEQ ID NO: 1] (H-RRWVRRVRRVWRRVVRVVRRWVRR-NH2)
- Related TEAE Abdominal [?], n participants [1]: 0
- Related TEAE Blood and lymphatic system disorders, n participants [1]: 0
- Related TEAE Co[?], n participants [1]: 0
- Related TEAE D[?] (r32, GI SOC), n participants [1]: 0
- Related TEAE F[?], n participants [1]: 0
- Related TEAE Gastrointestinal disorders, n participants [1]: 0
- Related TEAE In[?] related reaction, n participants [1]: 0
- Related TEAE Infusion [?] reaction, n participants [1]: 0
- Related TEAE Injury, poi[?] procedural complications, n participants [1]: 0
- Related TEAE M[?] and connective tissure disorders, n participants [1]: 0
- Related TEAE Myalgia, n participants [1]: 0
- Related TEAE Nervous system disorders, n participants [1]: 0
- Related TEAE O[?] (r25, vascular SOC), n participants [1]: 0
- Related TEAE O[?] (r38, respiratory SOC), n participants [1]: 0
- Related TEAE P[?] (r26, vascular SOC), n participants [1]: 0
- Related TEAE Pain in extremity, n participants [1]: 0
- Related TEAE Respiratory, thoracic and m[?] disorders, n participants [1]: 0
- Related TEAE T[?], n participants [1]: 0
- Related TEAE Vascular disorders, n participants [1]: 0
- Related TEAE Ve[?], n participants [1]: 0
- Related TEAE [?] headache, n participants [1]: 0
- TEAE A[?] (r19, skin SOC), n participants [1]: 0
- TEAE A[?] (r46, GI SOC), n participants [1]: 0
- TEAE Back pain, n participants [1]: 0
- TEAE Blood and lymphatic system disorders, n participants [1]: 0
- TEAE Constipation, n participants [1]: 0
- TEAE D[?] (r54), n participants [1]: 0
- TEAE D[?] contact, n participants [1]: 0
- TEAE Dia[?], n participants [1]: 0
- TEAE Headache, n participants [1]: 0
- TEAE In[?] (r53), n participants [1]: 0
- TEAE Injury, [?] and procedural complications, % participants [1]: 50.0%
- TEAE Injury, [?] and procedural complications, M occurrences [1]: 3
- TEAE Injury, [?] and procedural complications, n participants [1]: 3
- TEAE Mu[?], n participants [1]: 0
- TEAE Musculoskeletal and connective tissue disorders, n participants [1]: 0
- TEAE My[?], n participants [1]: 0
- TEAE O[?] (r37, vascular SOC), n participants [1]: 0
- TEAE O[?] pain, n participants [1]: 0
- TEAE Pain [?], n participants [1]: 0
- TEAE Participants with at least one [?], M occurrences [1]: 7
- TEAE Participants with at least one [?], n participants [1]: 5
- TEAE R[?] (r20, skin SOC), n participants [1]: 0
- TEAE Respiratory, thoracic and [?] disorders, n participants [1]: 0
- TEAE Severity Grade 1, occurrences (M) [1]: 7
- TEAE Severity Grade 1, participants % [1]: 83.3%
- TEAE Severity Grade 1, participants n [1]: 5
- TEAE Severity Grade 2, participants n [1]: 0
- TEAE Skin and [?] tissue [?], n participants [1]: 0
- TEAE Skin reaction, n participants [1]: 0
- TEAE Thermal [?], n participants [1]: 0
- TEAE V[?] (r24, general SOC), n participants [1]: 0
- TEAE V[?] access [?] (r10), % participants [1]: 50.0%
- TEAE V[?] access [?] (r10), M occurrences [1]: 3
- TEAE V[?] access [?] (r10), n participants [1]: 3
- TEAE V[?] puncture site [?] (r28), n participants [1]: 0
- TEAE Vascular access site [?] (r11), n participants [1]: 0
- TEAE Vascular access site [?] (r12), n participants [1]: 0
- TEAE Vascular access site [?] (r15), n participants [1]: 0
- TEAE Vascular disorders, n participants [1]: 0
- TEAE [?] (r13, under Injury SOC), n participants [1]: 0
- TEAE [?] (r25, general SOC), n participants [1]: 0
- TEAE [?] (r26, general SOC), n participants [1]: 0
- TEAE [?] (r38, vascular SOC), n participants [1]: 0
- TEAE [?] (r39, vascular SOC), n participants [1]: 0
- TEAE [?] (r44, nervous SOC), n participants [1]: 0
- TEAE [?] (r52, blood SOC), n participants [1]: 0
- TEAE, occurrences (M) [1]: 7
- Participants Reporting at least One TEAE, % [2]: 100%
- Related TEAE Blood and lymphatic system disorders, n participants [2]: 0
- Related TEAE Co[?], n participants [2]: 0
- Related TEAE F[?], n participants [2]: 0
- Related TEAE In[?] related reaction, n participants [2]: 0
- Related TEAE Injury, poi[?] procedural complications, n participants [2]: 0
- Related TEAE M[?] and connective tissure disorders, n participants [2]: 0
- Related TEAE Myalgia, n participants [2]: 0
- Related TEAE Nervous system disorders, n participants [2]: 0
- Related TEAE O[?] (r25, vascular SOC), n participants [2]: 0
- Related TEAE O[?] (r38, respiratory SOC), n participants [2]: 0
- Related TEAE P[?] (r26, vascular SOC), n participants [2]: 0
- Related TEAE Pain in extremity, n participants [2]: 0
- Related TEAE Respiratory, thoracic and m[?] disorders, n participants [2]: 0
- Related TEAE T[?], n participants [2]: 0
- Related TEAE V[?] (r18), n participants [2]: 0
- Related TEAE Vascular disorders, n participants [2]: 0
- Related TEAE [?] headache, n participants [2]: 0
- TEAE A[?] (r19, skin SOC), n participants [2]: 0
- TEAE Abdominal pain, n participants [2]: 0
- TEAE Blood and lymphatic system disorders, n participants [2]: 0
- TEAE Constipation, n participants [2]: 0
- TEAE D[?] contact, n participants [2]: 0
- TEAE Dizziness, n participants [2]: 0
- TEAE Gastrointestinal disorders, M occurrences [2]: 2
- TEAE Gastrointestinal disorders, n participants [2]: 1
- TEAE Injury, [?] and procedural complications, M occurrences [2]: 4
- TEAE Injury, [?] and procedural complications, n participants [2]: 3
- TEAE Mu[?], n participants [2]: 0
- TEAE My[?], n participants [2]: 0
- TEAE O[?] (r37, vascular SOC), n participants [2]: 0
- TEAE O[?] pain, n participants [2]: 0
- TEAE P[?] (r43, nervous SOC), n participants [2]: 0
- TEAE Respiratory, thoracic and [?] disorders, n participants [2]: 0
- TEAE Severity Grade 1, occurrences (M) [2]: 12
- TEAE Severity Grade 1, participants % [2]: 100%
- TEAE Severity Grade 1, participants n [2]: 6
- TEAE Severity Grade 2, occurrences (M) [2]: 3
- TEAE Severity Grade 2, participants n [2]: 2
- TEAE Skin and [?] tissue [?], M occurrences [2]: 3
- TEAE Skin and [?] tissue [?], n participants [2]: 2
- TEAE Skin reaction, M occurrences [2]: 2
- TEAE Skin reaction, n participants [2]: 1
- TEAE Thermal [?], n participants [2]: 0
- TEAE V[?] puncture site [?] (r27), n participants [2]: 0
- TEAE V[?] puncture site [?] (r28), n participants [2]: 0
- TEAE Vascular access site [?] (r15), n participants [2]: 0
- TEAE Vascular disorders, n participants [2]: 0
- TEAE [?] (r13, under Injury SOC), n participants [2]: 0
- TEAE [?] (r26, general SOC), n participants [2]: 0
- TEAE [?] (r38, vascular SOC), n participants [2]: 0
- TEAE [?] (r39, vascular SOC), n participants [2]: 0
- TEAE [?] (r44, nervous SOC), n participants [2]: 0
- TEAE [?] (r52, blood SOC), n participants [2]: 0
- TEAE, occurrences (M) [2]: 15
- overall safety and tolerability (0.05 to 0.5 mg/kg, drug concentration below […] and rate of infusion below 25 mg/hr): safe and well tolerated
- Number of Participants Reporting at least: Onc TEAE Leading to Study Withdrawal, n (%) [3]: 0
- Number of Participants Reporting at least: One Dose-Limiting Toxicity, n (%) [3]: 0
- Number of Participants Reporting at least: One Related TEAE, n (%) [3]: 1 (16.7%)
- Number of Participants Reporting at least: One Serious TEAE, n (%) [3]: 0
- Number of Participants Reporting at least: One TEAE Leading to Study Drug Discontinuation, n (%) [3]: 0
- Number of Participants Reporting at least: One TEAE with Common Terminology Criteria for Adverse Events (CTCAE) Toxicity ≥ Grade 3, n (%) [3]: 0
- Number of Participants Reporting at least: One TEAE, n (%) [3]: 5 (83.3%)
- One Related TEAE, m [3]: 1
- One TEAE, m [3]: 7
- Participants With At Least 1 TEAE, n (%) [3]: 5 (83.3%)
